Results reported in PMC6176987, “Correction of cognitive deficits in mouse models of Down syndrome by a pharmacological inhibitor of DYRK1A” (Disease Models & Mechanisms, 2018).

Assays:
Dp1Yey mice = assay: Novel object recognition (NOR) test in Dp1Yey mice; format: in vivo, mouse; settings: daily i.p. treatment for 19 days
Method: Behavioural studies were conducted in 12- to 20-week-old male animals. All assessments were scored blind to genotype and treatment, as recommended by the ARRIVE guidelines ([Karp et al., 2015]; [Kilkenny et al., 2010]). […] The final formulation was prepared just prior to use as a 2 mg/ml solution diluted in PEG300/water (50/45), to reach a final DMSO/PEG300/water 5/50/45 (v/v/v) mix. Treated animals received a daily dose (5, 12 or 19 days) of this formulation by i.p. injection of 20 mg/kg/day. Nontreated animals received the same formulation without L41.
The NOR task is based on the innate tendency of rodents to differentially explore a novel object over a familiar one ([Ennaceur and Delacour, 1988]). Day 1 was a habituation session. Mice freely explored the apparatus, a white circular arena (53 cm diameter) placed in a dimly lit testing room (40 lux). On day 2, the acquisition phase, mice were free to explore two identical objects for 10 min. Mice were then returned to their home cage for a 24 h retention interval. […] Object exploration was manually scored and defined as the orientation of the nose to the object at a distance <1 cm. For the retention phase, the percent of time spent exploring familiar versus novel objects was calculated to assess memory performance.

CLK3 = CLK3 (Mus musculus, UniProt O35492); assay: Recombinant protein kinase assay, CLK3; format: biochemical
CLK2 = CLK2 (Mus musculus, UniProt O35491); assay: Recombinant protein kinase assay, CLK2; format: biochemical
[1] = test system: Tg(Dyrk1a) mice brain phosphoproteins; assay: Brain phosphoproteomic analysis, Tg(Dyrk1a) mice; format: in vivo, mouse; settings: 20 mg/kg daily i.p. 19 days
Description: All tissue samples were processed for phosphoproteomics analysis based on the enrichment and separation of proteotypic phosphopeptides with HILIC (see Materials and Methods). In Tg(Dyrk1a) and Ts65Dn mice, the hippocampus, cortex and cerebellum yielded 1384, 1523 and 2004 peptides, respectively, corresponding to 886, 948 and 1229 proteins (Table 1; Tables S1-S13).
Only biological processes common to the three brain regions and both models are presented (complete biological processes are listed in Tables S11-S13).
DYRK1A substrates and their respective phosphorylation sites were identified in the phosphoproteome based on the DYRK1A phosphorylation consensus sequence R-P-x(1,3)-S/T-P ([Himpel et al., 2000]). […] Biological process enrichments of each cluster were assessed by using ToppCluster web server application. […]
Protein Identification and Quantification. […]
Precursor Mass Tolerance 10 ppm, Fragment Mass Tolerance 20 mmu, Dynamic Modifications were Oxidation of M (+15.995 Da), Deamidation of N, Q (+0.984 Da), Phosphorylation of S (+79.966 Da) and Static Modifications were iTRAQ8plex at any N-Terminus, K, Y (+304.205 Da) and Methylthio at C (+45.988 Da). […] The Reporter Ion Quantifier node included a custom iTRAQ 8plex (Thermo Scientific Instruments) Quantification Method, integration window tolerance of 10 ppm with Most Confident Centroid. […]

CLK3, sequence (O35492 whole entry): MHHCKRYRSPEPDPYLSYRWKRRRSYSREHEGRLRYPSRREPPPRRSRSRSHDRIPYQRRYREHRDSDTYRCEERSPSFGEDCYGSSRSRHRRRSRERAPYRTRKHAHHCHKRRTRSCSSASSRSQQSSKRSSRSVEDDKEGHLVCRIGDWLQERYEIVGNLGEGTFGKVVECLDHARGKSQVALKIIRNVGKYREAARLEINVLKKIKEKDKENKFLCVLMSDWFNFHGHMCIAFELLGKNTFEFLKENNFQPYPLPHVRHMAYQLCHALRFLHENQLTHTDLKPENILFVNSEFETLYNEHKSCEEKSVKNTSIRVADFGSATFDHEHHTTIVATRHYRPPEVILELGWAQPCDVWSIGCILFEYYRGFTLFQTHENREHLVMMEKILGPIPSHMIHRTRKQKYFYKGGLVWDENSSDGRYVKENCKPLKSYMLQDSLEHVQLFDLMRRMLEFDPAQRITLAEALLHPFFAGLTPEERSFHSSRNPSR
CLK2, sequence (O35491 whole entry): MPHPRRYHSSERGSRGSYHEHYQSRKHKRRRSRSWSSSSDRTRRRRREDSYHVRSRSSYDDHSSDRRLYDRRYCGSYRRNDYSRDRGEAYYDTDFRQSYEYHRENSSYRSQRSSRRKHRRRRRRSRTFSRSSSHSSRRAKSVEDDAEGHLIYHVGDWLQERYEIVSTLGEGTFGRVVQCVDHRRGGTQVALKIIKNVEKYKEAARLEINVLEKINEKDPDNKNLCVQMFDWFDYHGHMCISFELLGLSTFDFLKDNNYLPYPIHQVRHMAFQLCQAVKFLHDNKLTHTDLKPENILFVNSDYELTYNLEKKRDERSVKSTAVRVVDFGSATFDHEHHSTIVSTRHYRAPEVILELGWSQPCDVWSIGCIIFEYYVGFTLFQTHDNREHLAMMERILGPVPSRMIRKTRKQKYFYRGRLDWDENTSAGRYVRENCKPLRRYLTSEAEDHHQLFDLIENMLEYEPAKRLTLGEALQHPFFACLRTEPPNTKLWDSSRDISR

Structure (SMILES): O=C1NC(Nc2ccccc2)=N/C1=C\c1ccc2c(c1)OCO2 [L41]
- NOR test outcome (Dp1Yey mice): rescue
- IC50 (CLK3): 1200 nM
- IC50 (CLK2): 130 nM
- SYN1 Ser551 phosphorylation following treatment [1]: dephosphorylated
